# Assay results from patent publication US20220142948A1, “COMPOSITIONS AND METHODS FOR MODULATING METABOLIC REGULATORS OF T CELL PATHOGENICITY” (The Broad Institute, Inc., priority 2019, published 2022).
# “Also recorded” adds a separate entry of the source.
# Columns and labels:
# [1] = tested on: Th17 cells (Th17n, Th17p); experiment: T cell differentiation culture and flow cytometry (intracellular cytokine and transcription factor staining, CellTrace proliferation); details: for IL-17 positive CD4 T cells / IL-17 expression: glycolysis enzyme inhibitors, non-pathogenic or pathogenic Th17 conditions, cells after one division
# Protocol: Naïve CD4+CD44-CD62L+CD25-T cells were sorted using BD FACSAria sorter and activated with plate-bound anti-CD3 (1 μg/ml) and antiCD28 antibodies (2 μg/ml) in the presence of cytokines at a concentration of 5×10^5 cells/ml.
# Naïve CD4+CD44-CD62L+CD25− T cells with or without including IL-17A.GFP+ were sorted using BD FACSAria sorter and activated with plate-bound anti-CD3 and antiCD28 antibodies (each 1 μg/ml) in the presence of cytokines at a concentration of 5×10^5 cells/ml. For T cell differentiations the following combinations of cytokines were used: pathogenic Th17 (Th17p): 25 ng/ml rmIL-6, 20 ng/ml rmIL-1b (both Miltenyi Biotec) and 20 ng/ml rmIL-23 (R&D systems); non-pathogenic Th17 (Th17n): 25 ng/ml rmIL-6 and 2 ng/ml of rhTGFb1 (Miltenyi Biotec). For differentiation experiments, cells were harvested at 72 hours and were performed in the presence or absence of 50 μM EGCG (Selleck Chemicals), 50 μM DHEA, 40 μM DCA, 10 μM Shikonin (all Sigma) as indicated.
# Proliferation was assessed by staining with CellTrace Violet (Thermo Fisher Scientific) per manufacturer's instructions. All stainings were analyzed on a FACS LSR II (BD Bioscience) and using FlowJo software.
# [2] = tested on: Th17 cells (Th17n, Th17p); experiment: Legendplex analysis of cytokines in culture supernatant; assay type: cell-based, mouse; details: glycolysis enzyme inhibitors; Th17 cell cultures
# Protocol: (§1) Legendplex. Cytokine concentrations in supernatants of in vitro cultures were analyzed by the LegendPlex Mouse Th Cytokine Panel (13-plex) (BioLegend) according to the manufacturer's instructions and analyzed on a FACS LSR II (BD Biosciences).
# Seahorse assay was performed and seahorse media was prepared following manufacturer instructions (Agilent). Cells were re-stimulated with PMA/ionomycin for four hours in the presence of brefaldin and monensin before analysis for cytokines by intracellular cytokine staining. Cytokine concentrations in supernatants of in vitro cultures were analyzed by the LegendPlex Mouse Th Cytokine Panel (13-plex) (BioLegend) according to the manufacturer's instructions and analyzed on a FACS LSR II (BD Biosciences).
# [3] = tested on: experimental autoimmune encephalomyelitis (EAE); experiment: Adoptive transfer EAE with 2D2 TCR-transgenic Th17 cells differentiated in the presence of inhibitor; assay type: in vivo, mouse
# From the text: For adoptive transfer EAE, naïve 2D2 transgenic T cells were sorted and differentiated into Th17n cells+/−EGCG or Th17p+/−DHEA as described for three days followed by a resting phase in the presence of IL-23 alone for 2 days. Cells were then harvested and restimulated with plate-bound anti-CD3 and anti-CD28 for 2 days prior to transfer. 2-8 million cells were transferred per mouse intravenously.
# For adoptive transfer EAE, naive T cells (CD4+CD44-CD62L+CD25-) were isolated from 2D2 TCR-transgenic mice and activated with anti-CD3 ([…]) and anti-CD28 ([…]) in the presence of differentiation cytokines for 68h. Cells were rested for 2 days and restimulated with plate-bound anti-CD3 (0.5 mg/ml for pathogenic condition; […] for non-pathogenic condition) and anti-CD28 ([…]) for 2 days prior to transfer. Equal number (2 to 8 million) cells were transferred per mouse intravenously.
# [4] = tested on: Th17n, Th17p and iTreg cells; experiment: Population (bulk) RNA-seq of in vitro differentiated T cells; assay type: cell-based, mouse
# Protocol: (§2) RNA-seq. For population (bulk) RNA-seq, in vitro differentiated T-cells were sorted for live cells and lysed with RLT Plus buffer and RNA was extracted using the RNeasy Plus Mini Kit (Qiagen). Full-length RNA-seq libraries were prepared as previously described and paired-end sequenced (75 bp×2) with a 150 cycle Nextseq 500 high output V2 kit.
# Bulk RNA-Seq and SMART-Seq2 analysis. Applicants aligned single-cell SMART-Seq2 libraries with Bowtie2, quantified TPM gene expression with RSEM, and performed QC as Applicants described in detail in a previous publication^51. This computational pipeline is a massively revised and updated version of the one originally used to analyze these libraries^19. Batch effects and other nuisance factors were normalized with a model chosen empirically with SCONE ^52. Bulk RNA-Seq were processed with a modified variant of the same pipeline. In the absence of UMIs, differentially expressed genes were called through a linear model fitted to TPM values with the limma R package and with a mean-variance trend added to the empirical bayes prior^53,54.
# as §2
# Bulk RNA libraries from DFMO- or vehicle-treated Th17p, Th17n, or Treg were studied with 3 replicates per condition for a total of 18 libraries as shown in FIG. 36A. Genes that are associated with a Th17 or Treg programs (orange and purple, respectively, in FIG. 36B-C) were determined by differential expression test between bulk RNA libraries of (vehicle-treated) Th17n and Th17p on one side and Treg on the other with BH-adjusted p<0.05 and absolute value of log 2 fold-change of at least 1.5. Genes associated with the Th17p or Th17n program (magenta and green, respectively, in FIG. 40A) were determined by differential expression test between bulk RNA libraries of (vehicle-treated) Th17p vs. Th17n with the same thresholds. The PCA shown in FIG. 36A was computed on the set of 3,414 that were differentially associated with Th17, Treg, Th17p, or Th17n programs by the aforementioned criteria to focus it on the subspace of the transcriptome relevant to Th17 pathogenicity phenotypes.
# Applicants aligned single-cell SMART-Seq libraries with Bowtie2, quantified TPM gene expression with RSEM, and performed QC as Applicants described in detail in a previous publication (Fletcher et al., 2017). This computational pipeline is a massively revised and updated version of the one originally used to analyze these libraries (Gaublomme et al., 2015). Batch effects and other nuisance factors were normalized with a model chosen empirically with SCONE (Cole et al., 2019). Bulk RNA-Seq were processed with a modified variant of the same pipeline.
# For the Smart-Seq libraries, due the absence of UMIs in the dataset, differentially expressed genes were called through a linear model _tted to TPM values with the limma R package and with a mean-variance trend added to the empirical Bayes prior (Ritchie et al., 2015). For the bulk RNA libraries, differentially expressed genes were called with limma-trend or limma-voom (Law et al., 2014) depending on the variance of library sizes, as recommended in the limma package manual (Smyth, 2019).
# [5] = tested on: MOG35-55 specific T cells; experiment: Antigen-specific recall response of draining lymph node cells to MOG35-55 (thymidine incorporation, Legendplex); assay type: in vivo, mouse; details: mice transferred with DHEA-treated Th17p cells
# Protocol: FIG. 37A-37I—Targeting ODC1 and SAT1 alleviate EAE. (A) Schematics of the polyamine pathway; (B-D) The effects of chemical inhibition of ODC1 by DFMO on EAE. Wildtype mice were immunized with MOG35-55/CFA to induce experimental autoimmune encephalomyelitis and followed for clinical scoring. DFMO were provided in drinking water from day 0 for 10 days in experimental group. B, Clinical score over time. […] C, Antigen-specific cell proliferation is measured by thymidine incorporation after culturing cells isolated from draining lymph node of mice (d15 post immunization) with increasing dose of MOG35-55 peptide for 3 days. D, Flow cytometric analysis of intracellular Foxp3 expression in T cells isolated from CNS at day 15 post immunization. (E-I) The effects of genetic perturbation of SAT1. E, The effects of SAT1 deficiency on metabolome. Abundance of metabolites in the polyamine pathway were determined by LC/MS based metabolomics. Th17n and Th17p cells were differentiated in vitro from naïve cells isolated from WT or SAT1^−/− mice. (F-I) The effects of SAT1 deficiency on EAE. EAE were induced as in (B) in wildtype and SAT1^fl/flCD4^cre mice. F, Clinical score (left) and histological score (right) showing the number of CNS infiltrates show representative experiment with 5 WT and 8 CKO mice. G-H, Cells were isolated from draining lymph node of mice (d23 post immunization) and co-cultured with increasing dose of MOG35-55 peptide for 3 days. Antigen-specific cell proliferation is measured by thymidine incorporation (G) and antigen-specific cytokine secretion by legendplex (H). I, Flow cytometry analysis of intracellular transcription factor expression in CD4 T cells isolated from CNS day 15 post immunization. Linear regression analysis (b, c, f, g), two-way anova (e) and student t test (d, i) were used for statistical analysis.
# FIG. 46A-46J—EGCG exacerbates and DHEA ameliorates Th17-induced EAE in vivo. 2D2 TCR-transgenic Th17 cells were adoptively transferred after differentiation in vitro in the presence of an inhibitor or vehicle as indicated. (A, C, G) Clinical outcome of EAE; (B, D) Histological score based on cell infiltrates in meninges and parenchyma of CNS; (E, F) Draining lymph node (cervical) from respective mice were isolated and pulsed with increasing dose of MOG35-55 peptide for 3 days and (E) subjected to thymidine incorporation assay; or (F) measurement of cytokine secretion by Legendplex and flow cytometry. Concentrations were normalized through division by the respective response to no antigen control (H-I) Independent pathological report of CNS isolated from mice with EAE at end point (d35 for EGCG experiments; d28 for DHEA experiment); Optic nerves were not found in the histologic section from one animal in the EGCG+IL-23 group. (J) Representative histology of spinal cord and spinal nerve roots. […] PC, posterior column; PH, posterior horn. Individual mouse numbers are indicated. […] All are H. & E., 40× objective. Three similar experiments were performed.
# KDMSA = KDMSA (Homo sapiens, UniProt P29375); details: cited from earlier work
# [6] = tested on: other histone demethylases; details: cited from earlier work
# 100 protein kinases = details: at a concentration of 30 μM; cited from earlier work
# UTX (KDM6A) = UTX (KDM6A) (Homo sapiens, UniProt O15550); details: cited from earlier work
# KDMSC = KDMSC (Homo sapiens, UniProt P41229); details: cited from earlier work
# KDMSB = KDMSB (Homo sapiens, UniProt Q9UGL1); details: cited from earlier work
# Th17n and Th17p cells = experiment: Seahorse assay, oxygen consumption rate; assay type: cell-based, mouse; details: 40 uM etomoxir
# Protocol: FIG. 44A-44I—Differential usage of glycolysis and fatty acid oxidation by pathogenic and non-pathogenic Th17 cells. (A) A diagram of central carbon metabolism, overlaid with Compass prediction for differential potential activity between Th17p and Th17n. […] (B) Th17n, Th17p and Treg cells were differentiated as described (STAR Methods) and replated with Seahorse media at 68h for Seahorse assay. Extracellular acidification rate (ECAR) and oxygen consumption rate (OCR) are reported in response to mitostress test. (C) Th17p and Th17n cells were differentiated and harvested at 68h (left columns) or replated in fresh media with no TCR stimulation or cytokine for 15 minutes (right columns) and subject to LC/MS based metabolomics. (D) Cells were harvested as in C and pulsed with 13C-tagged glucose for 15 minutes. Shown is the ratio of 13C-tagged carbon out of the total carbon content associated with the metabolite (STAR Methods). (E) Th17n and Th17p cells were measured for their oxygen consumption rate in the presence of control or 40 uM etomoxir. […]
# as §1, with “Seahorse assay was performed and seahorse media was prepared following manufacturer instructions (Agilent). […]” for “Legendplex.”
# Chain of KDMSB (Q9UGL1 whole entry): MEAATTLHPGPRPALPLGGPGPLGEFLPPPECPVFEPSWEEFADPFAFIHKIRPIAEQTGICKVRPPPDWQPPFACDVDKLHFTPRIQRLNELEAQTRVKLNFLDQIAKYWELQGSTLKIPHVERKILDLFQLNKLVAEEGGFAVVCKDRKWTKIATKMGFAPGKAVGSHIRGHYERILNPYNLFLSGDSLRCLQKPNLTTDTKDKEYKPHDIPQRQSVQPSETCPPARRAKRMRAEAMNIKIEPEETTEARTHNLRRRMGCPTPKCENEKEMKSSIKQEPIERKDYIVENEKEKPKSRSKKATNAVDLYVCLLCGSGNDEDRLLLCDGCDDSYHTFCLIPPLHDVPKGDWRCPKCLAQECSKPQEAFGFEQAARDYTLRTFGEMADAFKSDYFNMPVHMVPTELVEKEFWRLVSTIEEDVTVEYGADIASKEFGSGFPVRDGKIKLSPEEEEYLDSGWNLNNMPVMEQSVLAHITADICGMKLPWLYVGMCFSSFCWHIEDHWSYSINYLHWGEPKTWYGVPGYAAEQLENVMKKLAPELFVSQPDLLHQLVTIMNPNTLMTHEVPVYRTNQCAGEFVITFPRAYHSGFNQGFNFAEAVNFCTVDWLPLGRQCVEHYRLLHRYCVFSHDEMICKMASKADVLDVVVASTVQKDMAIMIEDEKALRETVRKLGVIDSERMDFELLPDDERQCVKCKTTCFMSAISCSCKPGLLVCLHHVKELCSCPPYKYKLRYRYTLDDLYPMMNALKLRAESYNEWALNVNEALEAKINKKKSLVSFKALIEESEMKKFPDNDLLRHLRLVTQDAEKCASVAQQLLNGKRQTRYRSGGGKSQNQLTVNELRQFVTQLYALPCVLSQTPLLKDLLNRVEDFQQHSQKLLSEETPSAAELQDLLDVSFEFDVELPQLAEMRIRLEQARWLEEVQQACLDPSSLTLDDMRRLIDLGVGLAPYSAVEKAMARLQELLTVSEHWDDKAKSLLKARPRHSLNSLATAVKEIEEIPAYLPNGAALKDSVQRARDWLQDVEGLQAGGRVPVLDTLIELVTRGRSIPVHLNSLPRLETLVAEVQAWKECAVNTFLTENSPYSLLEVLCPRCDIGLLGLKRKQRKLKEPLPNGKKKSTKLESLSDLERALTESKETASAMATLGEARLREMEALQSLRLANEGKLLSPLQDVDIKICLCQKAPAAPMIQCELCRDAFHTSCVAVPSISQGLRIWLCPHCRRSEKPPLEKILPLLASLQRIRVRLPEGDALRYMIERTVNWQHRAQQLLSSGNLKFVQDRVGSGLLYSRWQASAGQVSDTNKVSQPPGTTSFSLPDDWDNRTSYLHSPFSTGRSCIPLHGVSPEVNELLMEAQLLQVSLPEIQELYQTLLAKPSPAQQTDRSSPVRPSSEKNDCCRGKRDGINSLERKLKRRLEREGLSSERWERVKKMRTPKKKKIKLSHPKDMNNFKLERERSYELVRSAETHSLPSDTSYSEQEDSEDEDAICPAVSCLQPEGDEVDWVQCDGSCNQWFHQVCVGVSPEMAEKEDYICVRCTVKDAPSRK
# Chain of KDMSA (P29375 whole entry): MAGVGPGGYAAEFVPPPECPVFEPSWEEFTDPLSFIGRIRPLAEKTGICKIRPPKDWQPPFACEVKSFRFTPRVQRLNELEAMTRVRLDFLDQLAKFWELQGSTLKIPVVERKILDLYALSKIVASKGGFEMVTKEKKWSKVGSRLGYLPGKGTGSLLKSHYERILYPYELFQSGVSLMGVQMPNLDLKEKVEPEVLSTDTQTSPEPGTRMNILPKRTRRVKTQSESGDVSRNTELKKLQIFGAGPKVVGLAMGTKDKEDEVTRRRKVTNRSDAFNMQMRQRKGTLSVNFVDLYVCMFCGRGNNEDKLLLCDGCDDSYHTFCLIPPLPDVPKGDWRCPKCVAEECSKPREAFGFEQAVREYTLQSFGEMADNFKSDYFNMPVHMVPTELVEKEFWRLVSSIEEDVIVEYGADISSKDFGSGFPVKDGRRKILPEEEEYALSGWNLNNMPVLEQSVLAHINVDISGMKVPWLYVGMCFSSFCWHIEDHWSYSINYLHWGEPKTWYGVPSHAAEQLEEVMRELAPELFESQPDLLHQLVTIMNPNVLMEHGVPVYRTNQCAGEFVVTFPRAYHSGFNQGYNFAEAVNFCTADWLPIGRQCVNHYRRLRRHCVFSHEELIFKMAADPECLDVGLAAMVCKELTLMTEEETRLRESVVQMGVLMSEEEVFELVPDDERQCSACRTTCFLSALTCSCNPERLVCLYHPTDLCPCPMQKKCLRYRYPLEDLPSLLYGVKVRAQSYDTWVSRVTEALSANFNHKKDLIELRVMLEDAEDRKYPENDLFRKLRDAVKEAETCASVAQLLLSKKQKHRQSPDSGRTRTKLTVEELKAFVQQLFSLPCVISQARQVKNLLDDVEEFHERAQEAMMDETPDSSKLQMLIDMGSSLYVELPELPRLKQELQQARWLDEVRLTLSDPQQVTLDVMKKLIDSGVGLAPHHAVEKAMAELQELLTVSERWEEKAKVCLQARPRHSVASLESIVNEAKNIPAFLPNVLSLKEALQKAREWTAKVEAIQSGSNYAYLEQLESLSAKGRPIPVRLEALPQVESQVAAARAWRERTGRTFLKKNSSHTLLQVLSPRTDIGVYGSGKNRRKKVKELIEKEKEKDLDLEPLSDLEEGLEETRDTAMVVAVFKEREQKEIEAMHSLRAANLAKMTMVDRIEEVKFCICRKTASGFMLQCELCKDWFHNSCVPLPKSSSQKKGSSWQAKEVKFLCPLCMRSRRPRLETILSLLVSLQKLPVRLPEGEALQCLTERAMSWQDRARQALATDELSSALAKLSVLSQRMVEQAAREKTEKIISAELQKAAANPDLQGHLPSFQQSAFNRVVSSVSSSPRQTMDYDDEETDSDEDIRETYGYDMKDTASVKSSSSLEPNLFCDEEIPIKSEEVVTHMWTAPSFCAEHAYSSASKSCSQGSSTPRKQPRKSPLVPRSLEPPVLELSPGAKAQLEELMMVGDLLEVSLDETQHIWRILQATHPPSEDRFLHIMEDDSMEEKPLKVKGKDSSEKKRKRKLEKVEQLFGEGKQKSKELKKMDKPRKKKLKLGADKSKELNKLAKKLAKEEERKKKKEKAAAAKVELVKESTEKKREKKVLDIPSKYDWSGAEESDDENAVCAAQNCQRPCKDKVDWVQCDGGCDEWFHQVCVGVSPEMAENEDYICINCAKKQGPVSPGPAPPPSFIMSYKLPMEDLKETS
# Chain of KDMSC (P41229 whole entry): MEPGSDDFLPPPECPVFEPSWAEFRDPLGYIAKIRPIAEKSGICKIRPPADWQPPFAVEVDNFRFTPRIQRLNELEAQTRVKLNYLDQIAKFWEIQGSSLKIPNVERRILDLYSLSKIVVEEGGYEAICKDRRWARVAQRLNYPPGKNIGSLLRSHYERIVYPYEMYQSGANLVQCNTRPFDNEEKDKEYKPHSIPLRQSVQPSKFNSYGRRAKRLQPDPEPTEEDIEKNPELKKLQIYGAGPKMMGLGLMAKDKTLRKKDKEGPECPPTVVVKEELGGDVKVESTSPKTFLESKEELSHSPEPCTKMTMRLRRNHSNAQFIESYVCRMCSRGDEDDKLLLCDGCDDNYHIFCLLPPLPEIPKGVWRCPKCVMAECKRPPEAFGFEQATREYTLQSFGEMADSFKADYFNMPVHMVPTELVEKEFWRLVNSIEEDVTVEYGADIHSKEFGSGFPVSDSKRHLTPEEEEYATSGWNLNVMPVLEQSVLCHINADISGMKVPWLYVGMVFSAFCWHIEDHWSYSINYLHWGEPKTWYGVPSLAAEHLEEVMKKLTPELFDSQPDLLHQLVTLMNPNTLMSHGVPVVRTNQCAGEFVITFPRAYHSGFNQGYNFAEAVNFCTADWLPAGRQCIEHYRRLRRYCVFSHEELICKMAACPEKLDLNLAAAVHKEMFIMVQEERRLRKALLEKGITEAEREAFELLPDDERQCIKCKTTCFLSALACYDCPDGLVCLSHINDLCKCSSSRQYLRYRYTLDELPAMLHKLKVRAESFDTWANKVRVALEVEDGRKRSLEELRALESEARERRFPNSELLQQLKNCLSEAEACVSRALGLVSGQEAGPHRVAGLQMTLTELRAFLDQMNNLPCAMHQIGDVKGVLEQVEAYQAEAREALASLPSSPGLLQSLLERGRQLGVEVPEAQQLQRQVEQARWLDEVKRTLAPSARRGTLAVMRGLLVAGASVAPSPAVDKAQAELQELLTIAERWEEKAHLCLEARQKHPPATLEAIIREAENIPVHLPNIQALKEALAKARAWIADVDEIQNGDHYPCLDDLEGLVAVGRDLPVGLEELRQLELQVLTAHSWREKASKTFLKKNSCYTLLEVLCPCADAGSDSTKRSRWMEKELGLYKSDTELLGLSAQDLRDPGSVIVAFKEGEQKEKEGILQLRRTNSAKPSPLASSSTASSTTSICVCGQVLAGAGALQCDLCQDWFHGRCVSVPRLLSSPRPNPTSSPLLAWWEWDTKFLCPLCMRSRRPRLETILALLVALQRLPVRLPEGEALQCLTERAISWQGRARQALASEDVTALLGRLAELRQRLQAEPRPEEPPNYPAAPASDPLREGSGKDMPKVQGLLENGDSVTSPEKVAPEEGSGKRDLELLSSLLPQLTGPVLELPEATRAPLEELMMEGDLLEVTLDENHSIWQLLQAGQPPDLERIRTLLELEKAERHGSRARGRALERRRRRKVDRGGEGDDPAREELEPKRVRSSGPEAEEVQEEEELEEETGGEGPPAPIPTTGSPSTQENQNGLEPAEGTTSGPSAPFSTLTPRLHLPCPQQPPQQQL
compound,measurement,setting,value
"O=C(OCC(O)CO)C(Cl)Cl (stereo not shown) [DCA, 2,3-dihydroxypropyl-dichloroacetate]",IL-17 positive CD4 T cells / IL-17 expression,[1],increase
same,cytokine profile / cytokine production,[2],retained their cytokine profile
"C[C@]12CC[C@H](O)CC1=CC[C@@H]1[C@@H]2CC[C@]2(C)C(=O)CC[C@@H]12 [DHEA, dehydroepiandrosterone]",optic neuritis/perineuritis in host mice,"[3]; EGCG on Th17n, DHEA on Th17p",restricted
same,EAE induced by Th17p cells,[3]; Th17p cells differentiated with inhibitor vs vehicle,induced a milder form of the disease; also recorded: alleviates EAE; also recorded: reduced the severity of disease at peak of EAE; also recorded: ameliorates
same,IL1RN transcripts,[4],significant decrease
same,IL9 transcripts,[4],significant decrease
same,pro-pathogenic transcriptional program / module,[4]; Th17n cells,does not induce an opposite effect
same,decrease in TBX21 (Tbet) transcripts,[4]; Th17p,1 fold
same,pathogenic program,[4]; Th17p cells,suppresses the pathogenic program
same,IL23R transcripts,[4]; both Th17p and Th17n,significant decrease
same,TBX21 transcripts,[4]; both Th17p and Th17n,significant decrease
same,decrease in IL-23R transcripts,[4]; both Th17p and Th17n,over 3 fold
same,position on PC1 (pathogenicity phenotype),[4]; bulk RNA-Seq of d1 Th17n and Th17p cells,shifted them to a less pathogenic state
same,IL-2 secretion in response to MOG,[5],increased
same,antigen-specific cytokine secretion in response to MOG,[5],no significant alterations
same,IL-17 positive CD4 T cells / IL-17 expression,[1],decrease
same,cytokine profile / cytokine production,[2],curtailed cytokine production
O=C(O)CCNc1cc(N2CCc3ccccc3CC2)nc(-c2ccccn2)n1 [GSK-J1],IC50,KDMSA,6800 nM
same,IC50,[6],> 20000 nM
same,inhibitory activity against 100 protein kinases,100 protein kinases,no significant inhibitory activity
same,IC50,UTX (KDM6A),53 nM
same,IC50,KDMSC,550 nM
same,IC50,KDMSB,170 nM
CCOC(=O)[C@@]1(CCCCCCOc2ccc(Cl)cc2)CO1 [etomoxir],oxygen consumption rate,Th17n and Th17p cells,decreased
NCCCCN [putrescine],rescue by putrescine of the observed effects of ODC1−/−,[1]; ODC1−/− Th17 cells,rescued
same,reversal by putrescine of the upregulation of Foxp3 by SAT1 inhibitor,"[1]; Th17n cells, 2.5 mM putrescine",partially reversed
same,rescue of the effect of DFMO by addition of putrescine,"[1]; cells treated with DFMO, 2.5 mM putrescine",rescues the effect of DFMO; also recorded: completely reversed their phenotype
same,rescue by putrescine of the effect of diminazene aceturate,[1]; non-pathogenic Th17 cells,rescues the effect of diminazene aceturate
same,rescue of the effect of DFMO by addition of putrescine,[1]; non-pathogenic Th17 cells,rescues the effect of DFMO
same,rescue by putrescine of the DFMO-induced increase in FoxP3 CD4 T cells,[1]; nonpathogenic Th17 cells,rescues the increase in FoxP3 CD4 T cells
same,rescue of the effect of DFMO by addition of putrescine,[1]; pathogenic and non-pathogenic Th17 cells,rescues the effect of DFMO
